Target: T1, human RORγ-LBD (Homo sapiens, UniProt P51449)
T1 construct: made in house; host or cells: E. coli (BL-21)
T1 sequence (P51449 262-518): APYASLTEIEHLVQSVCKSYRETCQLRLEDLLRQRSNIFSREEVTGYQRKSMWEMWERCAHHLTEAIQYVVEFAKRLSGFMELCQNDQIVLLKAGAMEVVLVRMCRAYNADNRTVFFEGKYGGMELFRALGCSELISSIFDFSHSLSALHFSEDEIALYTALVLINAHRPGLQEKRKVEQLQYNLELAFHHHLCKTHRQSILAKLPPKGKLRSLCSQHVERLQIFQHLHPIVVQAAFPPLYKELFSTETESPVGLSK
Assay: ROR gamma coactivator peptide recruitment Alphascreen assay (RORγ-LBD binding to GRIP1 coactivator peptide)
Assay type: biochemical
Conditions: 5 nM human RORγ-LBD, 30 nM 7-β-hydroxycholesterol, 50 nM biotinylated GRIP1 coactivator peptide, overnight incubation at room temperature; read-out: result (pIC50, RORγ coactivator peptide recruitment Alphascreen assay) (converted)
How it was run: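 Alphascreen proximity read-out after overnight room-temperature incubation, yielding pIC50 from 1-in-2 compound series (2.5% DMSO final). Mixture: 50 nM biotin-GRIP1 peptide, 30 nM 7-β-hydroxycholesterol agonist, 5 nM recombinant 6×His:Flag human RORγ-LBD (aa 262-518), 50 mM HEPES pH 7.4.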

Row | IC50 | SMILES
1 | 0.012 µM | CC1(C)CC[C@H](CN(CCc2c(Cl)cncc2Cl)C(=O)c2cnn([C@H]3CC[C@](C)(C(=O)O)CC3)c2C(F)(F)F)O1 [Example 679, trans-4-(4-((2-(3,5-dichloro-4-pyridinyl)ethyl)(((2R)-5,5-dimethyltetrahydro-2-furanyl)methyl)carbamoyl)-5-(trifluoromethyl)-1H-pyrazol-1-yl)-1-methylcyclohexanecarboxylic acid]
2 | 0.00132 µM | C[C@@H]1C[C@@H](n2ncc(C(=O)N(CC(=O)c3c(Cl)cccc3Cl)[C@H]3CCC34CCC4)c2C(F)(F)F)CC[C@@H]1C(=O)O [Example 848, (1S,2R,4S)-4-(4-((2-(2,6-dichlorophenyl)-2-oxoethyl)((1S)-spiro[3.3]hept-1-yl)carbamoyl)-5-(trifluoromethyl)-1H-pyrazol-1-yl)-2-methylcyclohexanecarboxylic acid]
3 | 0.00794 µM | Cc1cc(Cl)c(C(=O)CN(Cc2cc(F)cc(F)c2)C(=O)c2cnn([C@H]3CC[C@@H](C(=O)O)CC3)c2C(F)(F)F)c(Cl)n1 [Example 761, cis-4-(4-((2-(2,4-dichloro-6-methyl-3-pyridinyl)-2-oxoethyl)(3,5-difluorobenzyl)carbamoyl)-5-(trifluoromethyl)-1H-pyrazol-1-yl)cyclohexanecarboxylic acid]
4 | 0.00468 µM | Cc1cc(Cl)c(CCN(CC(C)(C)C)C(=O)c2cnn([C@H]3CC[C@](C)(C(=O)O)CC3)c2C(F)(F)F)c(Cl)c1 [Example 515, trans-4-(4-((2-(2,6-dichloro-4-methylphenyl)ethyl)(2,2-dimethylpropyl)carbamoyl)-5-(trifluoromethyl)-1H-pyrazol-1-yl)-1-methylcyclohexanecarboxylic acid]
5 | 0.002 µM | CC1(C)[C@@H]2C[C@H](N(CC(=O)c3c(Cl)cccc3Cl)C(=O)c3cnn([C@H]4C[C@@H](CC(=O)O)C4)c3C(F)(F)F)C[C@@H]21 (single isomer, unassigned) [Example 858]
6 | 0.00295 µM | C[C@H]1C[C@@H](n2ncc(C(=O)N(CC(=O)c3c(Cl)cncc3Cl)CC(C)(C)C(F)(F)F)c2C(F)(F)F)CC[C@@H]1C(=O)O (single isomer, unassigned) [Example 879]
7 | 0.0776 µM | CC(C)(C)CN(C[C@H](O)c1c(Cl)cccc1Cl)C(=O)c1cnn([C@H]2CC[C@H](C(=O)O)CC2)c1C(F)(F)F [Example 524, trans-4-(4-(((2R)-2-(2,6-dichlorophenyl)-2-hydroxyethyl)(2,2-dimethylpropyl)carbamoyl)-5-(trifluoromethyl)-1H-pyrazol-1-yl)cyclohexanecarboxylic acid]
8 | 0.0537 µM | C[C@H]1CC[C@H](CN(CC(=O)c2c(Cl)cncc2Cl)C(=O)c2cnn([C@H]3CC[C@](C)(C(=O)O)CC3)c2C(F)(F)F)O1 [Example 614, trans-4-(4-((2-(3,5-dichloro-4-pyridinyl)-2-oxoethyl)(((2R,5R)-5-methyltetrahydro-2-furanyl)methyl)carbamoyl)-5-(trifluoromethyl)-1H-pyrazol-1-yl)-1-methylcyclohexanecarboxylic acid]
9 | 0.0251 µM | C[C@@H]1C[C@H](n2ncc(C(=O)N(CC(=O)c3c(Cl)cncc3Cl)CC(C)(C)C)c2C(F)(F)F)CC[C@H]1C(=O)O [Example 793, (1R,2R,4R)-4-(4-((2-(3,5-dichloro-4-pyridinyl)-2-oxoethyl)(2,2-dimethylpropyl)carbamoyl)-5-(trifluoromethyl)-1H-pyrazol-1-yl)-2-methylcyclohexanecarboxylic acid]
10 | 0.302 µM | O=C(c1cnn([C@H]2CC[C@@H](C(=O)O)CC2)c1C(F)(F)F)N(CCc1c(Cl)cncc1Cl)[C@@H]1CCC12CCC2 [Example 621, cis-4-(4-((2-(3,5-dichloro-4-pyridinyl)ethyl)((1R)-spiro[3.3]hept-1-yl)carbamoyl)-5-(trifluoromethyl)-1H-pyrazol-1-yl)cyclohexanecarboxylic acid]
11 | 0.00589 µM | Cc1ccc(CCN(Cc2ccc(Cl)cc2)C(=O)c2cnn([C@H]3CC[C@H](C(=O)O)CC3)c2C(F)(F)F)c(C)c1 [Example 505, trans-4-(4-((4-chlorobenzyl)(2-(2,4-dimethylphenyl)ethyl)carbamoyl)-5-(trifluoromethyl)-1H-pyrazol-1-yl)cyclohexanecarboxylic acid]
12 | 0.0162 µM | COc1ncc(Cl)c(CCN(CC(C)(C)C)C(=O)c2cnn([C@H]3CC[C@H](C(=O)O)[C@H](C)C3)c2C(F)(F)F)c1Cl [Example 887, (1S,2R,4S)-4-(4-((2-(3,5-dichloro-2-methoxy-4-pyridinyl)ethyl)(2,2-dimethylpropyl)carbamoyl)-5-(trifluoromethyl)-1H-pyrazol-1-yl)-2-methylcyclohexanecarboxylic acid]
13 | 0.151 µM | CC1(C)CC(CN(CC(=O)c2c(F)cccc2Cl)C(=O)c2cnn([C@H]3CC[C@@H](C(=O)O)CC3)c2C(F)(F)F)C1 [Example 596, cis-4-(4-((2-(2-chloro-6-fluorophenyl)-2-oxoethyl)((3,3-dimethylcyclobutyl)methyl)carbamoyl)-5-(trifluoromethyl)-1H-pyrazol-1-yl)cyclohexanecarboxylic acid]
14 | 0.102 µM | Cc1cc(F)c(C(=O)CN(C[C@@]2(C)CCCO2)C(=O)c2cnn([C@H]3CC[C@](C)(C(=O)O)CC3)c2C(F)(F)F)c(Cl)c1 [Example 806, trans-4-(4-((2-(2-chloro-6-fluoro-4-methylphenyl)-2-oxoethyl)(((2R)-2-methyltetrahydro-2-furanyl)methyl)carbamoyl)-5-(trifluoromethyl)-1H-pyrazol-1-yl)-1-methylcyclohexanecarboxylic acid]
15 | 0.646 µM | C[C@@H]1C[C@@](C)(C(=O)O)CC[C@@H]1n1ncc(C(=O)N(CC(=O)c2c(Cl)cncc2Cl)CC(C)(C)C)c1C(F)(F)F [Example 882, (1S,3R,4S)-4-(4-((2-(3,5-dichloro-4-pyridinyl)-2-oxoethyl)(2,2-dimethylpropyl)carbamoyl)-5-(trifluoromethyl)-1H-pyrazol-1-yl)-1,3-dimethylcyclohexanecarboxylic acid]
16 | 0.0501 µM | C[C@]1(C(=O)O)CC[C@H](n2ncc(C(=O)N(CC(=O)c3c(Cl)cncc3Cl)C[C@H]3CC3(F)F)c2C(F)(F)F)CC1 [Example 819, trans-4-(4-((2-(3,5-dichloro-4-pyridinyl)-2-oxoethyl)(((1R)-2,2-difluorocyclopropyl)methyl)carbamoyl)-5-(trifluoromethyl)-1H-pyrazol-1-yl)-1-methylcyclohexanecarboxylic acid]
17 | 0.1 µM | CC1(C)CC[C@@H]1N(CC(=O)c1c(Cl)cncc1Cl)C(=O)c1cnn([C@H]2CC[C@](C)(C(=O)O)CC2)c1C(F)(F)F [Example 578, trans-4-(4-((2-(3,5-dichloro-4-pyridinyl)-2-oxoethyl)((1S)-2,2-dimethylcyclobutyl)carbamoyl)-5-(trifluoromethyl)-1H-pyrazol-1-yl)-1-methylcyclohexanecarboxylic acid]
18 | 0.00398 µM | Cc1ncc(Cl)c(C(=O)CN(Cc2cc(F)cc(F)c2)C(=O)c2cnn([C@H]3CC[C@](C)(C(=O)O)CC3)c2C(F)(F)F)c1Cl [Example 768, trans-4-(4-((2-(3,5-dichloro-2-methyl-4-pyridinyl)-2-oxoethyl)(3,5-difluorobenzyl)carbamoyl)-5-(trifluoromethyl)-1H-pyrazol-1-yl)-1-methylcyclohexanecarboxylic acid]
19 | 0.001 µM | Cc1cc(Cl)c(C(=O)CN(C[C@@H]2CC2(C)C)C(=O)c2cnn([C@H]3CC[C@](C)(C(=O)O)CC3)c2C(F)(F)F)c(Cl)c1 [Example 745, trans-4-(4-((2-(2,6-dichloro-4-methylphenyl)-2-oxoethyl)(((1R)-2,2-dimethylcyclopropyl)methyl)carbamoyl)-5-(trifluoromethyl)-1H-pyrazol-1-yl)-1-methylcyclohexanecarboxylic acid]
20 | 0.00148 µM | Cc1cc(Cl)c(C(=O)CN(CC2CCCCC2)C(=O)c2cnn([C@H]3CC[C@](C)(C(=O)O)CC3)c2C(F)(F)F)c(Cl)c1 [Example 533, trans-4-(4-((cyclohexylmethyl)(2-(2,6-dichloro-4-methylphenyl)-2-oxoethyl)carbamoyl)-5-(trifluoromethyl)-1H-pyrazol-1-yl)-1-methylcyclohexanecarboxylic acid]
21 | 0.00178 µM | C[C@@H]1C[C@@H](n2ncc(C(=O)N(CC(=O)c3c(Cl)cccc3Cl)CC3(C(F)(F)F)CC3)c2C(F)(F)F)CC[C@@H]1C(=O)O [Example 811, (1S,2R,4S)-4-(4-((2-(2,6-dichlorophenyl)-2-oxoethyl)((1-(trifluoromethyl)cyclopropyl)methyl)carbamoyl)-5-(trifluoromethyl)-1H-pyrazol-1-yl)-2-methylcyclohexanecarboxylic acid]
22 | 0.0024 µM | O=C(CN(CC1CC2(CC2)C1)C(=O)c1cnn([C@H]2CC[C@H](C(=O)O)CC2)c1C(F)(F)F)c1c(Cl)cccc1Cl [Example 567, trans-4-(4-((2-(2,6-dichlorophenyl)-2-oxoethyl)(spiro[2.3]hex-5-ylmethyl)carbamoyl)-5-(trifluoromethyl)-1H-pyrazol-1-yl)cyclohexanecarboxylic acid]
23 | 0.0219 µM | C[C@@H]1C[C@@H](n2ncc(C(=O)N(CC(=O)c3c(Cl)cncc3Cl)C[C@@H]3CCC(C)(C)O3)c2C(F)(F)F)CC[C@@H]1C(=O)O [Example 774, (1S,2R,4S)-4-(4-((2-(3,5-dichloro-4-pyridinyl)-2-oxoethyl)(((2S)-5,5-dimethyltetrahydro-2-furanyl)methyl)carbamoyl)-5-(trifluoromethyl)-1H-pyrazol-1-yl)-2-methylcyclohexanecarboxylic acid]
